Source: patent US7291622B2, “Medical uses of carbamate-substituted pyrazolo-pyridine derivatives” (Bayer Aktiengesellschaft, priority 2000, dated 2007)

Tested on: rabbit aorta rings
Test: Vasorelaxant effect in vitro (phenylephrine-contracted rabbit aorta rings)
Settings: Oryctolagus cuniculus; rabbit aortic rings, phenylephrine contraction; concentration reducing height of control contraction by 50%
Experimental: Vasorelaxant Effect In Vitro
Rabbits are stunned by a blow to the back of the neck and are exsanguinated. The aorta is removed, freed of adherent tissue and divided into rings 1.5 mm wide, which are put singly under tension in 5 ml organ baths containing carbogen-gassed Krebs-Henseleit solution at 37° C. with the following composition (mM): NaCl: 119; KCl: 4.8; CaCl2×2H2O: 1; MgSO4×7H2O: 1.4; KH2PO4: 1.2; NaHCO3: 25; glucose: 10. The force of contraction is detected with Statham UC2 cells, amplified and digitized via A/D converters (DAS-1802 HC, Keithley Instruments Munich) and recorded in parallel on chart recorders. A contraction is generated by adding phenylephrine to the bath cumulatively in increasing concentration. After several control cycles, the substance to be investigated is investigated in each further run in increasing dosage in each case, and the height of the contraction is compared with the height of the contraction reached in the last preceding run. The concentration necessary to reduce the height of the control value by 50% (IC50) is calculated from this. The standard application volume is 5 μl, and the DMSO content in the bath solution corresponds to 0.1%.

| SMILES | IC50 |
| --- | --- |
| Nc1nc(-c2nn(Cc3ccccc3F)c3ncccc23)ncc1CC(=O)N1CCOCC1 [Example 2] | 650 nM |
| C=CCN(CC=C)C(=O)Oc1cnc(-c2nn(Cc3ccccc3F)c3ncccc23)nc1N [Example 11] | 520 nM |
| CCOC(=O)CN(C(=O)Oc1cnc(-c2nn(Cc3ccccc3F)c3ncccc23)nc1N)C(C)COC (centres unmarked) [Example 15] | 320 nM |
| CN(C)C(=S)Oc1cnc(-c2nn(Cc3ccccc3F)c3ncccc23)nc1N [Example 19] | 420 nM |
| CCN(CC)C(=O)Nc1nc(-c2nn(Cc3ccccc3F)c3ncccc23)ncc1OC(=O)N(CC)CC [Example 26, 4-{[(Diethylamino)carbonyl]amino}-2-[1-(2-fluorobenzyl)-1H-pyrazolo[3,4-b]pyridin-3-yl]-5-pyrimidinyl diethylcarbamate] | 340 nM |
